In patent US20230365556A1, “N-ACYL AMINO ACID COMPOUNDS AND METHODS OF USE” (Pliant Therapeutics, Inc., priority 2016, published 2023) one finds IC50 data, which are given here for 30 compounds.

For this assay, the target named is αvβ1 integrin (αvβ1 expressing CHO cells) (Homo sapiens (Human), UniProt P05556+P06756). The assay can be described thus: Cell adhesion assay: inhibition of αvβ1 expressing CHO cells attaching to TGFβ1LAP. The assay is classed as cell-based. The settings on record: 1 h at 37° C., crystal violet absorbance 595 nm, read-out: αvβ1 Inhibition IC50 (nM)-range. The procedure: Example B1—Cell Adhesion Assay
In order to determine the potency, the compounds were assessed for their ability to inhibit αvβ1 expressing CHO cells attach to TGFβ1LAP. Microplates were coated overnight with 2 ug/ml TGFβ1LAP at 4° C., and blocked with 2% BSA/PBS for 30 min before the assay. Cells were detached and washed in PBS. After that the cells were resuspended in DMEM at 1.0×10^6 cells/ml, fifty microliter of cell suspension and fifty microliter of compound solution were added into the plate. The plates were incubated for one hour at 37° C. in humidified 5% carbon dioxide. Non-adherent cells were removed by centrifugation top side down at 58 g for 5 min. The attached cells were fixed and stained with 0.5% crystal violet (in 20% methanol and 1% formaldehyde) and the wells washed with PBS. Crystal violet was dissolved in 2% Triton-X in PBS. The relative number of cells in each well was evaluated by the absorbance at 595 nm in a microplate reader (Tecan). IC50 values were determined by non-linear regression with four parameters (Graphpad Prism 7.01, Y=Bottom+(Top−Bottom)/(1+10^((Log IC50−X)*HillSlope)).
The compounds tested were compound samples prepared according to procedures described in the Synthetic Examples section, with the stereochemical purity as indicated in the Examples indicated for Example or Compound No. 1-62. The compounds tested were predominantly S-configuration at the alpha carbon of the amino acid scaffold, except for compounds 123, 124, and 125 which were predominantly R-configuration at the alpha carbon of the amino acid scaffold. “Example or Compound No.” in Table B-1 refers to the compound illustrated in the examples for Example or Compound Nos. 1-62 (the compounds of Examples 1-62 are labeled as Compounds 1-62 in Table 1). “Example or Compound No.” in Table B-1 refers to the compound number as indicated in Table 1 or Table 2 for Example or Compound Nos. 63-126.

Where a name gives a salt, the structure may show the parent alone.

By IC50 is commonly meant the concentration at which inhibition is half-maximal.

Sequence of αvβ1 integrin (αvβ1 expressing CHO cells) (P06756 31-889): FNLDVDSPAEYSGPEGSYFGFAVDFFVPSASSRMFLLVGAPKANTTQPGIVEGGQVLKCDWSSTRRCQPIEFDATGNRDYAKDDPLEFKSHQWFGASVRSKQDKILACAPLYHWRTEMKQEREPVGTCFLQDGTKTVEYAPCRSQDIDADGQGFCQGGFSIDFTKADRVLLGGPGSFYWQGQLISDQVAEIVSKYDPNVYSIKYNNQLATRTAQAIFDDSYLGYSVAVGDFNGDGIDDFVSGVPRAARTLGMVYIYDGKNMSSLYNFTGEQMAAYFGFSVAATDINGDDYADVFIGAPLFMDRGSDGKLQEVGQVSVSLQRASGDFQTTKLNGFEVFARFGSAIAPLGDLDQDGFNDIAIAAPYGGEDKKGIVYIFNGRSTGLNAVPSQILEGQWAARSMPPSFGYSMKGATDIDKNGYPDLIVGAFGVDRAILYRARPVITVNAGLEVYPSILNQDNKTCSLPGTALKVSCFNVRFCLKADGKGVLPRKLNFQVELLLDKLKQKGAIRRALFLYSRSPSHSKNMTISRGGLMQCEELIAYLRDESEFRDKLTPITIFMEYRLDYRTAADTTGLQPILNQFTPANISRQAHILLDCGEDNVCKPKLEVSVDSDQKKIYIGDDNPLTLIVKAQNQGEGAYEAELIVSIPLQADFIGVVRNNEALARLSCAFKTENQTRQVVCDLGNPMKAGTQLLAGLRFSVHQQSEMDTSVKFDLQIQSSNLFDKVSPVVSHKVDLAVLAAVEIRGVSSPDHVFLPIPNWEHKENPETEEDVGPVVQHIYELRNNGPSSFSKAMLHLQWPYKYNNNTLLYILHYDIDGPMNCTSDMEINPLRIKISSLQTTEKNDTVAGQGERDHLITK
Sequence of αvβ1 integrin (αvβ1 expressing CHO cells) (P06756 891-1048 partner): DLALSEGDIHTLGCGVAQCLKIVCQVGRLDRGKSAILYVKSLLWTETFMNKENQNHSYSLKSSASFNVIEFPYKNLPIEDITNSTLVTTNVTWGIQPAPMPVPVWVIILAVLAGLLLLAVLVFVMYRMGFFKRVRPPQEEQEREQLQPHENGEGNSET
Sequence of αvβ1 integrin (αvβ1 expressing CHO cells) (P05556 21-798): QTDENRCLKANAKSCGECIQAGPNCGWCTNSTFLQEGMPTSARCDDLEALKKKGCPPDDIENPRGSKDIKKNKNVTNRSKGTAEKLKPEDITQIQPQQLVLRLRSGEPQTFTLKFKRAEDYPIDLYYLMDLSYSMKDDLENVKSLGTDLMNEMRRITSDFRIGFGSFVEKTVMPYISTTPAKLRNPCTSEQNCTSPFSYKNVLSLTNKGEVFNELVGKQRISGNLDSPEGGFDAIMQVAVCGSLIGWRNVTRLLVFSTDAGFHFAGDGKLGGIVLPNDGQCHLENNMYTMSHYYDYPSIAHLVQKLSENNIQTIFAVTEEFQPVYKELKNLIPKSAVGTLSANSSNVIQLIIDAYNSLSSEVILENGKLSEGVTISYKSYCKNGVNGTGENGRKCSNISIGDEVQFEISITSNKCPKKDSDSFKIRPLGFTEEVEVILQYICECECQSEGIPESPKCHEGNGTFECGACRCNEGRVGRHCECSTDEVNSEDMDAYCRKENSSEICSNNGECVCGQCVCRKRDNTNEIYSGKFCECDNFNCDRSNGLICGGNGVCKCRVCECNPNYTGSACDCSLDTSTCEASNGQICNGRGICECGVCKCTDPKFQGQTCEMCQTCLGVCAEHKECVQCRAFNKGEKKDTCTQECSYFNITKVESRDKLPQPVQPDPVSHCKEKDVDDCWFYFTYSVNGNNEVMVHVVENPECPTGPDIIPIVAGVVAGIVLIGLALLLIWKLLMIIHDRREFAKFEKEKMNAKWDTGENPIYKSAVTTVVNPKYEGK

For `O=C(NC(CN1CC(OCCCc2ccc3c(n2)NCCC3)C1)C(=O)O)c1c(Cl)cccc1Cl` (stereo not drawn) [Compound 74, 2-(2,6-dichlorobenzamido)-3-(3-(3-(5,6,7,8-tetrahydro-1,8-naphthyridin-2-yl)propoxy)azetidin-1-yl)propanoic acid], the IC50 was 250 to 1000 nM.

With `O=C(NC(Cc1ccc(OCCCc2ccc3c(n2)NCCC3)cc1)C(=O)O)c1c(Cl)cc(-c2cnc[nH]2)cc1Cl` (stereo not drawn) [Compound 99], the IC50 is below 50 nM.

In the case of `O=C(N[C@@H](CCCCCCCc1ccc2c(n1)NCCC2)C(=O)O)c1c(Cl)cccc1Cl` [Example 19, (S)-2-(2,6-dichlorobenzamido)-9-(5,6,7,8-tetrahydro-1,8-naphthyridin-2-yl)nonanoic acid], the IC50 was below 50 nM.

Regarding `O=C(N[C@@H](CCCCCCCc1ccc2c(n1)NCCC2)C(=O)O)c1ccc(-c2ccncc2)cc1` [Compound 112], the IC50 is 50 to 250 nM.

Regarding `O=C(N[C@@H](CCCCCCCc1ccc2c(n1)NCCC2)C(=O)O)c1ccc2cnn(C(F)F)c2c1` [Compound 105], the IC50 was in the range of 250 to 1000 nM.

Take `Cn1cnc2cc(C(=O)N[C@@H](Cc3ccc(OCCCc4ccc5c(n4)NCCC5)cc3)C(=O)O)ccc21` [Example 9, (S)-2-(1-methyl-1H-benzo[d]imidazole-5-carboxamido)-3-(4-(3-(5,6,7,8-tetrahydro-1,8-naphthyridin-2-yl)propoxy)phenyl)propanoic acid]: the IC50 lay in the range of 50 to 250 nM.

Turning to `O=CNc1cc(C(=O)N[C@@H](Cc2ccc(OCCCc3ccc4c(n3)NCCC4)cc2)C(=O)O)ccc1O` [Example 12, (S)-2-(3-formamido-4-hydroxybenzamido)-3-(4-(3-(5,6,7,8-tetrahydro-1,8-naphthyridin-2-yl)propoxy)phenyl)propanoic acid], the IC50 was below 50 nM.

With `O=C(N[C@@H](Cc1ccc(OCCCc2ccc3c(n2)NCCC3)cc1)C(=O)O)c1cc(F)ccc1Cl` [Example 36, (2S)-2-[(2-chloro-5-fluoro-benzoyl)amino]-3-[4-[3-(5,6,7,8-tetrahydro-1,8-naphthyridin-2-yl)propoxy]phenyl]propanoic acid], the IC50 is below 50 nM.

On to `Cn1cnc2ccc(C(=O)N[C@@H](Cc3ccc(OCCCc4ccc5c(n4)NCCC5)cc3)C(=O)O)cc21` [Example 2, (S)-2-(1-methyl-1H-benzo[d]imidazole-6-carboxamido)-3-(4-(3-(5,6,7,8-tetrahydro-1,8-naphthyridin-2-yl)propoxy)phenyl)propanoic acid], for which the IC50 is below 50 nM.

As for `O=C(N[C@@H](Cc1ccc(O[C@H]2CC[C@H](Nc3ccccn3)CC2)cc1)C(=O)O)c1c(Cl)cccc1Cl` [Example 39, (2S)-2-[(2,6-dichlorobenzoyl)amino]-3-[4-[4-trans-(2-pyridylamino)cyclohexoxy]phenyl]propanoic acid], the IC50 is above 1000 nM.

In the case of `O=C(N[C@@H](Cc1ccc(OCCCc2ccc3c(n2)NCCC3)cc1)C(=O)O)c1ccncc1` [Example 13, (S)-2-(isonicotinamido)-3-(4-(3-(5,6,7,8-tetrahydro-1,8-naphthyridin-2-yl)propoxy)phenyl)propanoic acid], the IC50 is below 50 nM.

With `O=C(N[C@@H](Cc1ccc(OCCCCNC2=NCCO2)cc1)C(=O)O)c1c(Cl)cccc1Cl` [Example 61, (S)-2-(2,6-dichlorobenzamido)-3-(4-(4-((4,5-dihydrooxazol-2-yl)amino)butoxy)phenyl)propanoic acid], the concentration for half-maximal inhibition (IC50) lay within 50 to 250 nM.

`O=C(N[C@@H](Cc1ccc(OCCCCNC2=NCCCS2)cc1)C(=O)O)c1c(Cl)cccc1Cl` [Example 60, (S)-2-(2,6-dichlorobenzamido)-3-(4-(4-((5,6-dihydro-4H-1,3-thiazin-2-yl)amino)butoxy)phenyl)propanoic acid]: the IC50 is below 50 nM.

In the case of `O=C(N[C@@H](Cc1cccc(OCCCc2ccc3c(n2)NCCC3)c1)C(=O)O)c1c(Cl)cccc1Cl` [Example 37, (2S)-2-((2,6-dichlorobenzoyl)amino)-3-(3-(3-(5,6,7,8-tetrahydro-1,8-naphthyridin-2-yl)propoxy)phenyl)propanoic acid], the IC50 was in the range of 250 to 1000 nM.

For `O=C(N[C@@H](Cc1ccc(OCCCc2ccc3c(n2)NCCC3)cc1)C(=O)O)c1ccc2ocnc2c1` [Example 10, (S)-2-(benzo[d]oxazole-5-carboxamido)-3-(4-(3-(5,6,7,8-tetrahydro-1,8-naphthyridin-2-yl)propoxy)phenyl)propanoic acid], the IC50 was below 50 nM.

For `O=C(N[C@@H](Cc1ccc(OCCCc2ccc3c(n2)NCCC3)cc1)C(=O)O)c1ccc(C2CC2)cc1` [Example 34, (2S)-2-[(4-cyclopropylbenzoyl)amino]-3-[4-[3-(5,6,7,8-tetrahydro-1,8-naphthyridin-2-yl)propoxy]phenyl]propanoic acid], the IC50 is below 50 nM.

As to `O=C(N[C@@H](Cc1ccc(OCCCc2ccc3c(n2)NCCC3)cc1)C(=O)O)c1c(F)cccc1F` [Example 7, (S)-2-(2,6-difluorobenzamido)-3-(4-(3-(5,6,7,8-tetrahydro-1,8-naphthyridin-2-yl)propoxy)phenyl)propanoic acid], the IC50 is below 50 nM.

As to `CN1CC(NCCCCOc2ccc(C[C@H](NC(=O)c3c(Cl)cccc3Cl)C(=O)O)cc2)=NCC1=O` [Example 58, (S)-2-(2,6-dichlorobenzamido)-3-(4-(4-((4-methyl-5-oxo-3,4,5,6-tetrahydropyrazin-2-yl)amino)butoxy)phenyl)propanoic acid], the IC50 was above 1000 nM.

Turning to `O=C(NC(CCCCCCCc1ccc2c(n1)NCCC2)C(=O)O)c1ccc2cn[nH]c2c1` (stereo not drawn) [Compound 98], the IC50 was 50 to 250 nM.

Consider `CN1C(=O)CN=C1NCCCCCCCC[C@H](NC(=O)c1c(Cl)cccc1Cl)C(=O)O` [Example 50, (S)-2-(2,6-dichlorobenzamido)-10-((1-methyl-5-oxo-4,5-dihydro-1H-imidazol-2-yl)amino)decanoic acid], for which the IC50 is above 1000 nM.

Consider `CC(OCCc1ccc2c(n1)NCCC2)c1ccc(C[C@H](NC(=O)c2c(Cl)cccc2Cl)C(=O)O)cc1` (stereo partly drawn) [Example 33, (2S)-2-(2,6-dichlorobenzamido)-3-(4-(1-(2-(5,6,7,8-tetrahydro-1,8-naphthyridin-2-yl)ethoxy)ethyl)phenyl)propanoic acid], for which the IC50 was below 50 nM.

As to `O=C(NC(Cc1ccc(OCC2CC(Nc3ccccn3)C2)cc1)C(=O)O)c1c(Cl)cccc1Cl` [Example 23, (S)-2-(2,6-dichlorobenzamido)-3-(4-(((1s,3R)-3-(pyridin-2-ylamino)cyclobutyl)methoxy)phenyl)propanoic acid], the IC50 is below 50 nM.

As for `O=C(N[C@@H](Cc1ccc(OCCCc2ccc3c(n2)NCCC3)cc1)C(=O)O)c1ccccc1` [Example 1, (S)-2-benzamido-3-(4-(3-(5,6,7,8-tetrahydro-1,8-naphthyridin-2-yl)propoxy)phenyl)propanoic acid], the IC50 was below 50 nM.

On to `O=C(N[C@@H](CCCCCCCCNC1=NCCO1)C(=O)O)c1c(Cl)cccc1Cl` [Example 48, (S)-2-(2,6-dichlorobenzamido)-10-((4,5-dihydrooxazol-2-yl)amino)decanoic acid], for which the IC50 was above 1000 nM.

`CC(=O)N1CCN=C(NCCCCOc2ccc(C[C@H](NC(=O)c3c(Cl)cccc3Cl)C(=O)O)cc2)C1` [Example 55, (S)-3-(4-(4-((4-acetyl-3,4,5,6-tetrahydropyrazin-2-yl)amino)butoxy)phenyl)-2-(2,6-dichlorobenzamido)propanoic acid]: the IC50 fell in the range of 50 to 250 nM.

For `O=C(N[C@@H](Cc1ccc(COCCCNc2ccccn2)cc1)C(=O)O)c1c(Cl)cccc1Cl` [Example 30, (S)-2-(2,6-dichlorobenzamido)-3-(4-((3-(pyridin-2-ylamino)propoxy)methyl)phenyl) propanoic acid trifluoroacetate], the IC50 lay in the range of 250 to 1000 nM.

Consider `O=C(NC(Cc1ccc(COC2CC(Nc3ccccn3)C2)cc1)C(=O)O)c1c(Cl)cccc1Cl` [Example 32, (S)-2-(2,6-dichlorobenzamido)-3-(4-(((1s,3R)-3-(pyridin-2-ylamino)cyclobutoxy)methyl)phenyl)propanoic acid trifluoroacetate], for which the IC50 was 50 to 250 nM.

Turning to `Cn1ncc2cc(C(=O)NC(CCCCCCCc3ccc4c(n3)NCCC4)C(=O)O)ccc21` (stereo not drawn) [Compound 82, 2-(1-methyl-1H-indazole-5-carboxamido)-9-(5,6,7,8-tetrahydro-1,8-naphthyridin-2-yl)nonanoic acid], the IC50 was in the range of 50 to 250 nM.

As for `Cn1ncc2cc(C(=O)N[C@@H](CCCCCCCc3ccc4c(n3)NCCC4)C(=O)O)ccc21` [Compound 104], the IC50 fell in the range of 50 to 250 nM.

Turning to `O=C(N[C@@H](Cc1ccc(OCCCc2ccc3c(n2)NCCC3)cc1)C(=O)O)c1ccc2cn[nH]c2c1` [Example 40, (2S)-2-(1H-indazole-6-carbonylamino)-3-[4-[3-(5,6,7,8-tetrahydro-1,8-naphthyridin-2-yl)propoxy]phenyl]propanoic acid], the IC50 is below 50 nM.
